In US20160326142A1, “PYRAZOLE CARBOXAMIDE COMPOUNDS, COMPOSITIONS AND METHODS OF USE” (Genentech, Inc., priority 2012, published 2016):

Each compound was assayed against T1, ITK (Homo sapiens, UniProt Q08881) (assay: ITK enzyme assay (Caliper or LCMS peptide phosphorylation)). Conditions: purified ITK (Invitrogen PV3875), 20 μM ATP, Ki by Morrison's quadratic equation.
T1 construct: purchased Invitrogen PV3875
T1 sequence (Q08881 1-620): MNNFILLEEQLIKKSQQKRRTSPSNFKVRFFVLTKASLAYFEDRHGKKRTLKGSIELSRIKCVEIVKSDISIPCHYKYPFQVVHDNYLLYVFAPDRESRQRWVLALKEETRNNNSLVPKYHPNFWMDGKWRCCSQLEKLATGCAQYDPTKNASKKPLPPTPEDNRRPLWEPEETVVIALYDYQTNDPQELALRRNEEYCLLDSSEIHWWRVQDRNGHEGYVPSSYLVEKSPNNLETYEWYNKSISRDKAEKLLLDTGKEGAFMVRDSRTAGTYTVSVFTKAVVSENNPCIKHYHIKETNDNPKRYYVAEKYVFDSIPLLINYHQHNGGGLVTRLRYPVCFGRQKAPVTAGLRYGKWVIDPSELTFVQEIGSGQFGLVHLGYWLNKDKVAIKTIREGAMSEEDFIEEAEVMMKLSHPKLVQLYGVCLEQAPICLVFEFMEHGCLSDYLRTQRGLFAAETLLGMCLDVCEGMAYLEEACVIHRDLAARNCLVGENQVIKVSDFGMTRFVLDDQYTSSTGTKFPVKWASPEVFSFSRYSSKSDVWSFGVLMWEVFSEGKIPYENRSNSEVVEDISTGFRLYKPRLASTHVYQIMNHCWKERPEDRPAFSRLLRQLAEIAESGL
Format: biochemical
In short: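 Purified human ITK peptide phosphorylation, quenched with EDTA (50 mM final) for Caliper LabChip separation or TCA (5% v/v final) for UPLC-MS/MS MRM quantification. Ki derived via Morrison tight-binding equation, corrected for competitive inhibition using ATP concentration relative to Km,app.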

| SMILES | Ki |
| --- | --- |
| CC(c1cscn1)n1cc(NC(=O)c2n[nH]c3c2CCC(C)(C)C3)cn1 (single isomer, unassigned) [Example 84b, 6,6-dimethyl-N-(1-(1-(thiazol-4-yl)ethyl)-1H-pyrazol-4-yl)-4,5,6,7-tetrahydro-1H-indazole-3-carboxamide] | 13 nM |
| CC1(C)CCc2c(C(=O)Nc3cnn(C(c4nccs4)C4CCSCC4)c3)n[nH]c2C1 (single isomer, unassigned) [Example 85a, 6,6-dimethyl-N-(1-((tetrahydro-2H-thiopyran-4-yl)(thiazol-2-yl)methyl)-1H-pyrazol-4-yl)-4,5,6,7-tetrahydro-1H-indazole-3-carboxamide] | 0.6 nM |
| CC1(C)CCc2c(C(=O)Nc3cnn(C(c4nccs4)C4CCSCC4)c3)n[nH]c2C1 (single isomer, unassigned) [Example 85b, 6,6-dimethyl-N-(1-((tetrahydro-2H-thiopyran-4-yl)(thiazol-2-yl)methyl)-1H-pyrazol-4-yl)-4,5,6,7-tetrahydro-1H-indazole-3-carboxamide] | 0.9 nM |
| CC1(C)CCc2c(C(=O)Nc3cnn(C(c4nccs4)C4CCS(=O)(=O)CC4)c3)n[nH]c2C1 (single isomer, unassigned) [Example 87a, N-(1-((1,1-dioxidotetrahydro-2H-thiopyran-4-yl)(thiazol-2-yl)methyl)-1H-pyrazol-4-yl)-6,6-dimethyl-4,5,6,7-tetrahydro-1H-indazole-3-carboxamide] | 0.4 nM |
| CC1(C)CCc2c(C(=O)Nc3cnn(C(c4nccs4)C4CCS(=O)(=O)CC4)c3)n[nH]c2C1 (single isomer, unassigned) [Example 87b, N-(1-((1,1-dioxidotetrahydro-2H-thiopyran-4-yl)(thiazol-2-yl)methyl)-1H-pyrazol-4-yl)-6,6-dimethyl-4,5,6,7-tetrahydro-1H-indazole-3-carboxamide] | 1 nM |
| CC1(C)CCc2c(C(=O)Nc3cnn(C(c4cccnc4)C4CCOCC4)c3)n[nH]c2C1 (single isomer, unassigned) [Example 88a, 6,6-dimethyl-N-(1-(pyridin-3-yl(tetrahydro-2H-pyran-4-yl)methyl)-1H-pyrazol-4-yl)-4,5,6,7-tetrahydro-1H-indazole-3-carboxamide] | 0.1 nM |
| CC1(C)CCc2c(C(=O)Nc3cnn(C(c4cccnc4)C4CCOCC4)c3)n[nH]c2C1 (single isomer, unassigned) [Example 88b, 6,6-dimethyl-N-(1-(pyridin-3-yl(tetrahydro-2H-pyran-4-yl)methyl)-1H-pyrazol-4-yl)-4,5,6,7-tetrahydro-1H-indazole-3-carboxamide] | 0.7 nM |
| CC1(C)CCc2c(C(=O)Nc3cnn(C(c4ccccc4)C4CS(=O)(=O)C4)c3)n[nH]c2C1 (single isomer, unassigned) [Example 89a] | 0.2 nM |
| CC1(C)CCc2c(C(=O)Nc3cnn(C(c4ccccc4)C4CS(=O)(=O)C4)c3)n[nH]c2C1 (single isomer, unassigned) [Example 89b] | 4 nM |
| CC1(C)Cc2[nH]nc(C(=O)Nc3cnn(Cc4ccccc4)c3)c2CC1C#N (single isomer, unassigned) [Example 90a, N-(1-benzyl-1H-pyrazol-4-yl)-5-cyano-6,6-dimethyl-4,5,6,7-tetrahydro-1H-indazole-3-carboxamide] | 570 nM |
| CC1(C)Cc2[nH]nc(C(=O)Nc3cnn(Cc4ccccc4)c3)c2CC1C#N (single isomer, unassigned) [Example 90b, N-(1-benzyl-1H-pyrazol-4-yl)-5-cyano-6,6-dimethyl-4,5,6,7-tetrahydro-1H-indazole-3-carboxamide] | 10 nM |
| CC(c1cnn(C)c1)n1cc(NC(=O)c2n[nH]c3c2CCC(C)(C)C3)cn1 (single isomer, unassigned) [Example 91a, 6,6-dimethyl-N-(1-(1-(1-methyl-1H-pyrazol-4-yl)ethyl)-1H-pyrazol-4-yl)-4,5,6,7-tetrahydro-1H-indazole-3-carboxamide] | 11 nM |
| CC(c1cnn(C)c1)n1cc(NC(=O)c2n[nH]c3c2CCC(C)(C)C3)cn1 (single isomer, unassigned) [Example 91b, 6,6-dimethyl-N-(1-(1-(1-methyl-1H-pyrazol-4-yl)ethyl)-1H-pyrazol-4-yl)-4,5,6,7-tetrahydro-1H-indazole-3-carboxamide] | 19 nM |
| CC(c1nccs1)n1cc(NC(=O)c2n[nH]c3c2CCC(C)(C)C3)cn1 (single isomer, unassigned) [Example 92a, 6,6-dimethyl-N-(1-(1-(thiazol-2-yl)ethyl)-1H-pyrazol-4-yl)-4,5,6,7-tetrahydro-1H-indazole-3-carboxamide] | 7 nM |
| CC(c1nccs1)n1cc(NC(=O)c2n[nH]c3c2CCC(C)(C)C3)cn1 (single isomer, unassigned) [Example 92b, 6,6-dimethyl-N-(1-(1-(thiazol-2-yl)ethyl)-1H-pyrazol-4-yl)-4,5,6,7-tetrahydro-1H-indazole-3-carboxamide] | 10 nM |
| CC12Cc3[nH]nc(C(=O)Nc4cnn(C(CS(C)(=O)=O)c5cccnc5)c4)c3CC1C2 (single isomer, unassigned) [Example 93a, 5a-methyl-N-(1-(2-(methylsulfonyl)-1-(pyridin-3-yl)ethyl)-1H-pyrazol-4-yl)-1,4,4a,5,5a,6-hexahydrocyclopropa[f]indazole-3-carboxamide] | < 0.1 nM |
| CC12Cc3[nH]nc(C(=O)Nc4cnn(C(CS(C)(=O)=O)c5cccnc5)c4)c3CC1C2 (single isomer, unassigned) [Example 93b, 5a-methyl-N-(1-(2-(methylsulfonyl)-1-(pyridin-3-yl)ethyl)-1H-pyrazol-4-yl)-1,4,4a,5,5a,6-hexahydrocyclopropa[f]indazole-3-carboxamide] | 1 nM |
| CC1(C)Cc2[nH]nc(C(=O)Nc3cnn(C(c4ccccc4)C4CCS(=O)(=O)CC4)c3)c2C1 (single isomer, unassigned) [Example 94a, N-(1-((1,1-dioxidotetrahydro-2H-thiopyran-4-yl)(phenyl)methyl)-1H-pyrazol-4-yl)-5,5-dimethyl-1,4,5,6-tetrahydrocyclopenta[c]pyrazole-3-carboxamide] | 0.3 nM |
| CC1(C)Cc2[nH]nc(C(=O)Nc3cnn(C(c4ccccc4)C4CCS(=O)(=O)CC4)c3)c2C1 (single isomer, unassigned) [Example 94b, N-(1-((1,1-dioxidotetrahydro-2H-thiopyran-4-yl)(phenyl)methyl)-1H-pyrazol-4-yl)-5,5-dimethyl-1,4,5,6-tetrahydrocyclopenta[c]pyrazole-3-carboxamide] | 13 nM |
| CC1(C)Cc2[nH]nc(C(=O)Nc3cnn(Cc4ccccc4)c3)c2CC1CO (single isomer, unassigned) [Example 95a, N-(1-benzyl-1H-pyrazol-4-yl)-5-(hydroxymethyl)-6,6-dimethyl-4,5,6,7-tetrahydro-1H-indazole-3-carboxamide] | 5 nM |
| CC1(C)Cc2[nH]nc(C(=O)Nc3cnn(Cc4ccccc4)c3)c2CC1CO (single isomer, unassigned) [Example 95b, N-(1-benzyl-1H-pyrazol-4-yl)-5-(hydroxymethyl)-6,6-dimethyl-4,5,6,7-tetrahydro-1H-indazole-3-carboxamide] | 320 nM |
| CN(C)CC(c1ccccc1)n1cc(NC(=O)c2n[nH]c3c2CC(C)(C)C3)cn1 (single isomer, unassigned) [Example 96a, N-(1-(2-(dimethylamino)-1-phenylethyl)-1H-pyrazol-4-yl)-5,5-dimethyl-1,4,5,6-tetrahydrocyclopenta[c]pyrazole-3-carboxamide] | 57 nM |
| CN(C)CC(c1ccccc1)n1cc(NC(=O)c2n[nH]c3c2CC(C)(C)C3)cn1 (single isomer, unassigned) [Example 96b, N-(1-(2-(dimethylamino)-1-phenylethyl)-1H-pyrazol-4-yl)-5,5-dimethyl-1,4,5,6-tetrahydrocyclopenta[c]pyrazole-3-carboxamide] | 2 nM |
| CC1(C)Cc2[nH]nc(C(=O)Nc3cnn(C(CS(C)(=O)=O)c4cccnc4)c3)c2C1 (single isomer, unassigned) [Example 97a, 5,5-dimethyl-N-(1-(2-(methylsulfonyl)-1-(pyridin-3-yl)ethyl)-1H-pyrazol-4-yl)-1,4,5,6-tetrahydrocyclopenta[c]pyrazole-3-carboxamide] | 2 nM |
| CC1(C)Cc2[nH]nc(C(=O)Nc3cnn(C(CS(C)(=O)=O)c4cccnc4)c3)c2C1 (single isomer, unassigned) [Example 97b, 5,5-dimethyl-N-(1-(2-(methylsulfonyl)-1-(pyridin-3-yl)ethyl)-1H-pyrazol-4-yl)-1,4,5,6-tetrahydrocyclopenta[c]pyrazole-3-carboxamide] | 6 nM |
| CC(c1cncs1)n1cc(NC(=O)c2n[nH]c3c2CCC(C)(C)C3)cn1 (single isomer, unassigned) [Example 98a, 6,6-dimethyl-N-(1-(1-(thiazol-5-yl)ethyl)-1H-pyrazol-4-yl)-4,5,6,7-tetrahydro-1H-indazole-3-carboxamide] | 8 nM |
